In US20230044979A1, “ANIMAL CELL CULTURING METHOD” (AJINOMOTO CO., INC., priority 2020, published 2023):

What was measured:
[1] = Stability of L-cysteine derivatives in buffer solution (crystal precipitation by visual observation); type: physicochemical; conditions: 58 mM in PBS buffer pH 7.0 to 7.2; for crystal precipitation, Days 0 / crystal precipitation, Days 3 / crystal precipitation, Days 7 / crystal precipitation, Days 14 / crystal precipitation, Days 21 / crystal precipitation, Days 24: stored at 5° C. in the dark; for crystal precipitation, Days 0: day 0; for crystal precipitation, Days 3: day 3; for crystal precipitation, Days 7: day 7; for crystal precipitation, Days 14: day 14; for crystal precipitation, Days 21: day 21; for crystal precipitation, Days 24: day 24
Experimental: In this Example, the stability of L-cysteine derivatives in a buffer solution was evaluated.
In the table, “+” to “++++” indicate that crystal precipitation was observed, and the higher the number of “+”, the greater the degree of precipitation.

[2] = test system: CHO cells modified to produce a monoclonal antibody; test: Effect of addition of L-cysteine derivatives to basal medium on proliferation of CHO cells; type: cell-based, Chinese hamster; conditions: for use as an alternative for L-cysteine in the basal medium: 1.3 mM in basal medium; for proliferation of cells (viable cell count): 1.3 mM in basal medium otherwise without L-cysteine, day 7 of culture, FIG. 1
Experimental: In this Example, an effect of addition of L-cysteine derivatives to a basal medium on proliferation of CHO cells was evaluated. As the L-cysteine derivatives, (2RS,4R)-2-methyl-2,4-thiazolidinedicarboxylic acid 2-ethyl ester (hereinafter, also referred to as “Compound 1”) and (2RS,4R)-2-methyl-2,4-thiazolidinedicarboxylic acid (hereinafter, also referred to as “Compound 2”) were used. As the CHO cells, CHO cells modified to produce a monoclonal antibody were used.
CELLiST (registered trademark) Basal media (Ajinomoto Co., Ltd.: BASAL3) without L-cysteine was prepared, to obtain a culture medium without addition of L-cysteine. The culture medium without addition of L-cysteine was added with L-cysteine, Compound 1, or Compound 2, to prepare a culture medium containing 1.3 mM L-cysteine, 1.3 mM Compound 1, or 1.3 mM Compound 2. Each culture medium was added with LR3-IGF-1 (SIGMA-ALDRICH: I1271-1MG, final concentration of 50 μg/mL) and L-Glutamine (Thermo Fisher SCIENTIFIC: 25030081, final concentration of 6 mM), to prepare a basal medium.
A 3 mL-aliquot of a CHO cell suspension adjusted to 3×10^5 cells/mL using the prepared basal medium was seeded into a 6 well plate (CORNING: 3471), and cultured for 11 days. The culture was carried out with n=3 for all experimental groups. The culture temperature was 37° C. and the agitation speed was 110 rpm. A cell culture broth was sampled on days 7 and 11 from the start of the culture, and the viable cell count was measured using a viable/dead cells autoanalyzer Vi-CELL™ XR (Beckman Coulter).

[3] = test system: CHO cells modified to produce a monoclonal antibody; test: Effect of addition of L-cysteine derivatives to feed medium on proliferation of CHO cells and antibody production (1); type: cell-based, Chinese hamster; conditions: for antibody production amount: 14.5, 29 or 58 mM in feed medium, fed on days 4, 7, 9, 11, 14 days culture, FIG. 3
Experimental: In this Example, an effect of addition of L-cysteine derivatives to a feed medium on proliferation of CHO cells and antibody production was evaluated. As the L-cysteine derivatives, Compounds 1 and 2 were used. As the CHO cells, CHO cells modified to produce a monoclonal antibody were used.
CELLiST (registered trademark) Basal media (Ajinomoto Co., Ltd.: BASAL3; containing 1.3 mM L-cysteine) was added with LR3-IGF-1 (SIGMA-ALDRICH: I1271-1MG, final concentration of 50 μg/mL) and L-Glutamine (Thermo Fisher SCIENTIFIC: 25030081, final concentration of 6 mM), to prepare a basal medium.
Feed media (9 kinds in total) each containing 82 g/L Cellvento (registered trademark) Feed-210 (Merck: 1.02488.0005), 70 g/L glucose (Wako Pure Chemical Industries, Ltd.: 043-31163), and L-cysteine, Compound 1, or Compound 2 each at 14.5 mM, 29 mM, or 58 mM were prepared. In addition, a feed medium without addition of L-cysteine, which only contained 82 g/L Cellvento (registered trademark) Feed-210 and 70 g/L glucose, was prepared. Separately, a tyrosine concentrate (L-tyrosine disodium salt dihydrate (Merck: 122666-87-9) 149.64 g/L, pH 11.3) was prepared.
A 30 mL-aliquot of a CHO cell suspension adjusted to 3×10^5 cells/mL using the prepared basal medium was seeded into 125 mL-volume flasks (CORNING: 431143), and cultured for 14 days. The culture was carried out with n=2 for all experimental groups. The culture temperature was 37° C. and the agitation speed was 110 rpm. A 1.8 mL-aliquot of each of the prepared feed media and a 60 μL-aliquot of the tyrosine concentrate were added on days 4, 7, 9, and 11 from the start of the culture. A cell culture broth was sampled on days 4, 7, 9, 11, and 14 from the start of the culture, and the viable cell count was measured using a viable/dead cells autoanalyzer Vi-CELL™ XR (Beckman Coulter), and the antibody production amount was measured using Octet QK (FORTEBIO).

[4] = Stability of L-cysteine derivatives in feed medium (crystal precipitation by visual observation); type: physicochemical; conditions: for crystal precipitation, Days 0 / crystal precipitation, Days 1 / crystal precipitation, Days 7 / crystal precipitation, Days 22 / crystal precipitation, Days 30: stored at 5° C. in the dark; for crystal precipitation, Days 0: day 0; for crystal precipitation, Days 1: day 1; for crystal precipitation, Days 7: day 7; for crystal precipitation, Days 22: day 22; for crystal precipitation, Days 30: day 30
Experimental: In this Example, the stability of L-cysteine derivatives in a feed medium was evaluated. As the L-cysteine derivatives, Compounds 1 and 2 were used.
A feed medium containing 82 g/L Cellvento (registered trademark) Feed-210 (Merck: 1.02488.0005), 70 g/L glucose (Wako Pure Chemical Industries, Ltd.: 043-31163), and 58 mM L-cysteine, 58 mM Compound 1, or 58 mM Compound 2, and a feed medium without addition of L-cysteine, which only contained 82 g/L Cellvento (registered trademark) Feed-210 and 70 g/L glucose were prepared at pH 5.2 to 5.6, which are described in the instruction of Feed-210, and at pH 7.0, which is a neutral pH condition used for usual cultivation, to obtain 8 kinds of feed media in total. All of the feed media were prepared as transparent solutions.
After each of the feed media was stored at 5° C. in the dark, crystal precipitation was confirmed by visual observation. […] In the table, “+” to “++++” indicate that crystal precipitation was observed, and the higher the number of “+”, the greater the degree of precipitation. Under the addition condition, significant precipitation was observed from one week after the start of storage. Under the condition of adding Compound 2, precipitation was observed from 22 days after the start of storage.

[5] = 58 mM in feed medium pH 5.2 to 5.6
[6] = 58 mM in feed medium, 5° C. in the dark

Compound	relative stability compared with L-cysteine ([1]; 5° C. in the dark)	crystal precipitation, Days 0 [1]	crystal precipitation, Days 3 [1]	crystal precipitation, Days 7 [1]	crystal precipitation, Days 14 [1]	crystal precipitation, Days 21 [1]	crystal precipitation, Days 24 [1]	use as an alternative for L-cysteine in the basal medium [2]	proliferation of cells (viable cell count) [2]	antibody production amount [3]	crystal precipitation, Days 0 [4, 5]	crystal precipitation, Days 1 [4, 5]	crystal precipitation, Days 7 [4, 5]	crystal precipitation, Days 22 [4, 5]	crystal precipitation, Days 30 [4, 5]	crystal precipitation, Days 0 ([4]; 58 mM in feed medium pH 7)	crystal precipitation, Days 1 ([4]; 58 mM in feed medium pH 7)	crystal precipitation, Days 7 ([4]; 58 mM in feed medium pH 7)	crystal precipitation, Days 22 ([4]; 58 mM in feed medium pH 7)	crystal precipitation, Days 30 ([4]; 58 mM in feed medium pH 7)	further results
CC1(C(=O)O)N[C@H](C(=O)O)CS1 (mixture of isomers) [Compound 2, (2RS,4R)-2-methyl-2,4-thiazolidinedicarboxylic acid]	more stable than L-cysteine	−	−	−	−	−	−	able to be used as an alternative for L-cysteine	almost equivalent to that of the experimental group using L-cysteine	almost equivalent to that of the experimental group of L-cysteine	−	−	−	+	+++	−	−	−	++	+++	precipitation observed from (after the start of storage) [4, 6]: 22 days
CCOC(=O)C1(C)N[C@H](C(=O)O)CS1 (mixture of isomers) [Compound 1, (2RS,4R)-2-methyl-2,4-thiazolidinedicarboxylic acid 2-ethyl ester]	more stable than L-cysteine	−	−	−	−	−	−	unable to substitute the whole of L-cysteine in the basal medium	no proliferation of cells was observed	almost equivalent to that of the experimental group of L-cysteine	−	−	−	−	−	−	−	−	−	−	use as an alternative for L-cysteine in the feed medium ([3]; in feed medium, basal medium containing 1.3 mM L-cysteine): able to be used as an alternative for L-cysteine in the feed medium; relative stability in the culture medium [4, 6]: more stable than Compound 2; crystal precipitation on storage, in words ([4]; 58 mM in feed medium, 5° C. in the dark, up to 30 days after the start of storage): no crystal precipitation was observed
Cl.N[C@@H](CS)C(=O)O.O [L-cysteine, L-cysteine hydrochloride monohydrate]		−	++	+++	+++	+++	+++		Proliferation of cells was observed		−	−	+++	+++	+++	−	−	+++	+++	+++	significant precipitation observed from (after the start of storage) ([1]; 5° C. in the dark): 3 days
